Data taken from ChEMBL document CHEMBL5352496, “Design, synthesis and biological activity of hybrid antifungals derived from fluconazole and mebendazole” (Eur J Med Chem, 2023).
≈ marks a conversion by molar mass, not a printed value.

Assays:
[1] = system: Candida albicans; experiment: Antifungal activity against Candida albicans CMRC 19 incubated for 24 hrs by broth microdilution method; assay type: functional
[2] = system: Candida albicans; experiment: Antifungal activity against Candida albicans FDC 151 incubated for 24 hrs by broth microdilution method; assay type: functional
[3] = system: Candida albicans; experiment: Antifungal activity against Candida albicans CMRC 192 incubated for 24 hrs by broth microdilution method; assay type: functional
[4] = system: Nakaseomyces glabratus; experiment: Antifungal activity against Candida glabrata FDC 192 incubated for 24 hrs by broth microdilution method; assay type: functional
[5] = system: Nakaseomyces glabratus; experiment: Antifungal activity against Candida glabrata CMRC 89 incubated for 24 hrs by broth microdilution method; assay type: functional
[6] = system: Candida parapsilosis; experiment: Antifungal activity against Candida parapsilosis ATCC 22019 incubated for 24 hrs by broth microdilution method; assay type: functional; details: Lodderomyces parapsilosis
[7] = system: Candida tropicalis; experiment: Antifungal activity against Candida tropicalis FDC 138 incubated for 24 hrs by broth microdilution method; assay type: functional
[8] = system: Cryptococcus neoformans; experiment: Antifungal activity against Cryptococcus neoformans IFRC 340 incubated for 24 hrs by broth microdilution method; assay type: functional
[9] = system: BEAS-2B; experiment: Cytotoxicity against human BEAS-2B cells assessed as cell viability at 25 ug/ml incubated for 48 hrs by MTT assay; assay type: toxicity, cell-based; details: dose 25 µg/ml
[10] = system: HepG2; experiment: Cytotoxicity against human HepG2 cells assessed as cell viability at 25 ug/ml incubated for 48 hrs by MTT assay; assay type: toxicity, cell-based; details: hepg2, 48 h, dose 25 µg/ml

O=C(c1ccccc1)c1ccc2[nH]c(SCC(O)(Cn3cncn3)c3ccc(Cl)cc3Cl)nc2c1 (stereo not drawn)
MIC [1]: 0.5 µg/mL (≈ 0.953 µM)
MIC [2]: 0.063 µg/mL (≈ 0.12 µM)
MIC [3]: 1 µg/mL (≈ 1.91 µM)
MIC [4]: 1 µg/mL (≈ 1.91 µM)
MIC [5]: 2 µg/mL (≈ 3.81 µM)
MIC [6]: 2 µg/mL (≈ 3.81 µM)
MIC [7]: 0.125 µg/mL (≈ 0.238 µM)
MIC [8]: 1 µg/mL (≈ 1.91 µM)

O=C(c1ccccc1)c1ccc2[nH]c(SCC(O)(Cn3cncn3)c3ccc(F)cc3F)nc2c1 (stereo not drawn)
MIC [1]: 2 µg/mL (≈ 4.07 µM)
MIC [2]: 2 µg/mL (≈ 4.07 µM)
MIC [3]: 1 µg/mL (≈ 2.03 µM)
MIC [4]: 1 µg/mL (≈ 2.03 µM)
MIC [5]: 8 µg/mL (≈ 16.3 µM)
MIC [6]: 2 µg/mL (≈ 4.07 µM)
MIC [7]: 1 µg/mL (≈ 2.03 µM)
MIC [8]: 1 µg/mL (≈ 2.03 µM)

OC(CSc1nc2ccccc2s1)(Cn1cncn1)c1ccc(F)cc1 (stereo not drawn)
MIC [1]: 8 µg/mL (≈ 20.7 µM)
MIC [2]: > 64 µg/mL
MIC [3]: 16 µg/mL (≈ 41.4 µM)
MIC [4]: > 64 µg/mL
MIC [5]: 8 µg/mL (≈ 20.7 µM)
MIC [6]: 16 µg/mL (≈ 41.4 µM)
MIC [7]: 16 µg/mL (≈ 41.4 µM)
MIC [8]: 32 µg/mL (≈ 82.8 µM)

OC(CSc1nc2ccccc2s1)(Cn1cncn1)c1ccc(F)cc1F (stereo not drawn)
MIC [1]: 16 µg/mL (≈ 39.6 µM)
MIC [2]: > 64 µg/mL
MIC [3]: 32 µg/mL (≈ 79.1 µM)
MIC [4]: > 64 µg/mL
MIC [5]: 32 µg/mL (≈ 79.1 µM)
MIC [6]: > 64 µg/mL
MIC [7]: > 64 µg/mL
MIC [8]: > 64 µg/mL

OC(CSc1nc2ccccc2[nH]1)(Cn1cncn1)c1ccc(F)cc1F (stereo not drawn)
MIC [1]: > 64 µg/mL
MIC [2]: > 64 µg/mL
MIC [3]: > 64 µg/mL
MIC [4]: > 64 µg/mL
MIC [5]: > 64 µg/mL
MIC [6]: > 64 µg/mL
MIC [7]: 32 µg/mL (≈ 82.6 µM)
MIC [8]: 32 µg/mL (≈ 82.6 µM)

OC(CSc1nc2ccccc2[nH]1)(Cn1cncn1)c1ccccc1 (stereo not drawn)
MIC [1]: > 64 µg/mL
MIC [2]: > 64 µg/mL
MIC [3]: > 64 µg/mL
MIC [4]: > 64 µg/mL
MIC [5]: 16 µg/mL (≈ 45.5 µM)
MIC [6]: 32 µg/mL (≈ 91.1 µM)
MIC [7]: 32 µg/mL (≈ 91.1 µM)
MIC [8]: > 64 µg/mL

OC(CSc1nc2ccccc2s1)(Cn1cncn1)c1ccc(Cl)cc1 (stereo not drawn)
MIC [1]: 4 µg/mL (≈ 9.93 µM)
MIC [2]: 8 µg/mL (≈ 19.9 µM)
MIC [3]: 4 µg/mL (≈ 9.93 µM)
MIC [4]: 8 µg/mL (≈ 19.9 µM)
MIC [5]: 2 µg/mL (≈ 4.96 µM)
MIC [6]: 8 µg/mL (≈ 19.9 µM)
MIC [7]: 4 µg/mL (≈ 9.93 µM)
MIC [8]: 4 µg/mL (≈ 9.93 µM)

O=C(c1ccccc1)c1ccc2[nH]c(SCC(O)(Cn3cncn3)c3ccc(Cl)cc3)nc2c1 (stereo not drawn)
MIC [1]: 0.5 µg/mL (≈ 1.02 µM)
MIC [2]: < 0.063 µg/mL
MIC [3]: 0.5 µg/mL (≈ 1.02 µM)
MIC [4]: 0.125 µg/mL (≈ 0.255 µM)
MIC [5]: 1 µg/mL (≈ 2.04 µM)
MIC [6]: < 0.063 µg/mL
MIC [7]: < 0.063 µg/mL
MIC [8]: 0.125 µg/mL (≈ 0.255 µM)
Activity [9]: Toxic
Activity [10]: Toxic

OC(CSc1nc2ccccc2[nH]1)(Cn1cncn1)c1ccc(F)cc1 (stereo not drawn)
MIC [1]: 0.125 µg/mL (≈ 0.338 µM)
MIC [2]: 0.063 µg/mL (≈ 0.171 µM)
MIC [3]: 0.25 µg/mL (≈ 0.677 µM)
MIC [4]: 0.125 µg/mL (≈ 0.338 µM)
MIC [5]: 1 µg/mL (≈ 2.71 µM)
MIC [6]: < 0.063 µg/mL
MIC [7]: < 0.063 µg/mL
MIC [8]: 0.125 µg/mL (≈ 0.338 µM)
Activity [9]: Toxic
Activity [10]: Toxic

OC(c1ccccc1)c1ccc2[nH]c(SCC(O)(Cn3cncn3)c3ccccc3)nc2c1 (stereo not drawn)
MIC [1]: 8 µg/mL (≈ 17.5 µM)
MIC [2]: 2 µg/mL (≈ 4.37 µM)
MIC [3]: 8 µg/mL (≈ 17.5 µM)
MIC [4]: 8 µg/mL (≈ 17.5 µM)
MIC [5]: 16 µg/mL (≈ 35 µM)
MIC [6]: 4 µg/mL (≈ 8.74 µM)
MIC [7]: 2 µg/mL (≈ 4.37 µM)
MIC [8]: 8 µg/mL (≈ 17.5 µM)

O=[N+]([O-])c1ccc2[nH]c(SCC(O)(Cn3cncn3)c3ccc(F)cc3F)nc2c1 (stereo not drawn)
MIC [1]: > 64 µg/mL
MIC [2]: 32 µg/mL (≈ 74 µM)
MIC [3]: > 64 µg/mL
MIC [4]: > 64 µg/mL
MIC [5]: > 64 µg/mL
MIC [6]: > 64 µg/mL
MIC [7]: 32 µg/mL (≈ 74 µM)
MIC [8]: 32 µg/mL (≈ 74 µM)

OC(Cn1cncn1)(Cn1cncn1)c1ccc(F)cc1F [FLUCONAZOLE]
MIC [1]: 0.25 µg/mL (≈ 0.816 µM)
MIC [2]: 0.5 µg/mL (≈ 1.63 µM)
MIC [3]: 0.25 µg/mL (≈ 0.816 µM)
MIC [4]: 1 µg/mL (≈ 3.27 µM)
MIC [5]: 2 µg/mL (≈ 6.53 µM)
MIC [6]: 0.5 µg/mL (≈ 1.63 µM)
MIC [7]: 0.25 µg/mL (≈ 0.816 µM)
MIC [8]: 0.5 µg/mL (≈ 1.63 µM)

O=C(c1ccccc1)c1ccc2[nH]c(SCC(O)(Cn3cncn3)c3ccc(F)cc3)nc2c1 (stereo not drawn)
MIC [1]: 8 µg/mL (≈ 16.9 µM)
MIC [2]: 16 µg/mL (≈ 33.8 µM)
MIC [3]: 8 µg/mL (≈ 16.9 µM)
MIC [4]: > 64 µg/mL
MIC [5]: 16 µg/mL (≈ 33.8 µM)
MIC [6]: > 64 µg/mL
MIC [7]: 16 µg/mL (≈ 33.8 µM)
MIC [8]: 32 µg/mL (≈ 67.6 µM)

OC(CSc1nc2ccccc2s1)(Cn1cncn1)c1ccccc1 (stereo not drawn)
MIC [1]: 16 µg/mL (≈ 43.4 µM)
MIC [2]: 32 µg/mL (≈ 86.8 µM)
MIC [3]: 16 µg/mL (≈ 43.4 µM)
MIC [4]: 32 µg/mL (≈ 86.8 µM)
MIC [5]: 32 µg/mL (≈ 86.8 µM)
MIC [6]: 8 µg/mL (≈ 21.7 µM)
MIC [7]: 16 µg/mL (≈ 43.4 µM)
MIC [8]: 16 µg/mL (≈ 43.4 µM)

O=C(c1ccccc1)c1ccc2[nH]c(SCC(O)(Cn3cncn3)c3ccccc3)nc2c1 (stereo not drawn)
MIC [1]: 4 µg/mL (≈ 8.78 µM)
MIC [2]: 8 µg/mL (≈ 17.6 µM)
MIC [3]: 4 µg/mL (≈ 8.78 µM)
MIC [4]: 4 µg/mL (≈ 8.78 µM)
MIC [5]: 8 µg/mL (≈ 17.6 µM)
MIC [6]: 2 µg/mL (≈ 4.39 µM)
MIC [7]: 8 µg/mL (≈ 17.6 µM)
MIC [8]: 2 µg/mL (≈ 4.39 µM)

OC(CSc1nc2ccccc2[nH]1)(Cn1cncn1)c1ccc(Cl)cc1Cl (stereo not drawn)
MIC [1]: 8 µg/mL (≈ 19 µM)
MIC [2]: 8 µg/mL (≈ 19 µM)
MIC [3]: 8 µg/mL (≈ 19 µM)
MIC [4]: 16 µg/mL (≈ 38.1 µM)
MIC [5]: 16 µg/mL (≈ 38.1 µM)
MIC [6]: 8 µg/mL (≈ 19 µM)
MIC [7]: 8 µg/mL (≈ 19 µM)
MIC [8]: 8 µg/mL (≈ 19 µM)

OC(CSc1nc2ccccc2[nH]1)(Cn1cncn1)c1ccc(Cl)cc1 (stereo not drawn)
MIC [1]: 8 µg/mL (≈ 20.7 µM)
MIC [2]: 4 µg/mL (≈ 10.4 µM)
MIC [3]: 8 µg/mL (≈ 20.7 µM)
MIC [4]: 16 µg/mL (≈ 41.5 µM)
MIC [5]: 16 µg/mL (≈ 41.5 µM)
MIC [6]: 16 µg/mL (≈ 41.5 µM)
MIC [7]: 8 µg/mL (≈ 20.7 µM)
MIC [8]: 16 µg/mL (≈ 41.5 µM)

OC(CSc1nc2ccccc2s1)(Cn1cncn1)c1ccc(Cl)cc1Cl (stereo not drawn)
MIC [1]: 16 µg/mL (≈ 36.6 µM)
MIC [2]: 8 µg/mL (≈ 18.3 µM)
MIC [3]: 8 µg/mL (≈ 18.3 µM)
MIC [4]: 16 µg/mL (≈ 36.6 µM)
MIC [5]: 16 µg/mL (≈ 36.6 µM)
MIC [6]: 16 µg/mL (≈ 36.6 µM)
MIC [7]: 8 µg/mL (≈ 18.3 µM)
MIC [8]: 16 µg/mL (≈ 36.6 µM)
